Data from PubChem BioAssay (NCI).
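Each compound was tested at five concentrations against cells in 96-well plates for 48 hours. Abbreviation: GI50, concentration required for 50% inhibition of growth. TGI is the concentration that stops growth completely.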

Tests used:
Assay in all cases: inhibition of tumour cell growth, NCI panel, 48 h
MCF7 breast = test system: MCF7 breast
LOX IMVI melanoma = test system: LOX IMVI melanoma
KM12 colon = test system: KM12 colon
T-47D breast = test system: T-47D breast
OVCAR-8 ovarian = test system: OVCAR-8 ovarian
TK-10 renal = test system: TK-10 renal
RPMI-8226 leukemia = test system: RPMI-8226 leukemia
UO-31 renal = test system: UO-31 renal
786-0 renal = test system: 786-0 renal
IGROV1 ovarian = test system: IGROV1 ovarian
SNB-75 CNS = test system: SNB-75 CNS
HOP-92 NSCLC = test system: HOP-92 NSCLC
SK-MEL-5 melanoma = test system: SK-MEL-5 melanoma
HT29 colon = test system: HT29 colon
HCC-2998 colon = test system: HCC-2998 colon
NCI-H522 lung = test system: NCI-H522 lung
OVCAR-4 ovarian = test system: OVCAR-4 ovarian
A549 NSCLC = test system: A549 NSCLC

## CC(C)C1CC(CO)(CNc2nc(N)nc(Cl)c2/C=N\O)C1 (stereo not drawn)
MCF7 breast
  TGI: 4.27 µM
LOX IMVI melanoma
  TGI: 22.5 µM
KM12 colon
  TGI: 18.3 µM
T-47D breast
  TGI: 4.91 µM
OVCAR-8 ovarian
  TGI: 50.3 µM
TK-10 renal
  TGI: 61.1 µM
RPMI-8226 leukemia
  TGI: 31.9 µM
UO-31 renal
  TGI: 36.3 µM
786-0 renal
  TGI: 46.4 µM
IGROV1 ovarian
  TGI: 50.1 µM
SNB-75 CNS
  TGI: 43.6 µM
HOP-92 NSCLC
  TGI: 35.2 µM
SK-MEL-5 melanoma
  TGI: 2.82 µM
HT29 colon
  TGI: 15.5 µM
HCC-2998 colon
  TGI: 17.8 µM
NCI-H522 lung
  TGI: 22.4 µM
OVCAR-4 ovarian
  TGI: 28.3 µM
A549 NSCLC
  TGI: 18.8 µM

## CC(=O)c1cc2c(s1)C(=O)c1ccsc1C2=O
MCF7 breast
  TGI: 1.68 µM
LOX IMVI melanoma
  TGI: 0.0782 µM
KM12 colon
  TGI: 3.11 µM
T-47D breast
  TGI: 6.82 µM
OVCAR-8 ovarian
  TGI: 1.59 µM
TK-10 renal
  TGI: 3.69 µM
RPMI-8226 leukemia
  TGI: 49.7 µM
UO-31 renal
  TGI: 0.597 µM
786-0 renal
  TGI: 4.16 µM
IGROV1 ovarian
  TGI: 3.4 µM
SNB-75 CNS
  TGI: 0.367 µM
HOP-92 NSCLC
  TGI: 5.04 µM
SK-MEL-5 melanoma
  TGI: 0.262 µM
HT29 colon
  TGI: 4.19 µM
HCC-2998 colon
  TGI: 3.17 µM
NCI-H522 lung
  TGI: 0.486 µM
OVCAR-4 ovarian
  TGI: 2.56 µM
A549 NSCLC
  TGI: 4.2 µM

## COc1ccc(C2CC(c3ccc(NS(=O)(=O)c4cc([N+](=O)[O-])ccc4C)cc3)=NN2S(=O)(=O)c2cc([N+](=O)[O-])ccc2C)cc1 (stereo not drawn)
MCF7 breast
  TGI: > 100 µM
LOX IMVI melanoma
  TGI: > 100 µM
KM12 colon
  TGI: > 100 µM
T-47D breast
  TGI: > 100 µM
OVCAR-8 ovarian
  TGI: > 100 µM
TK-10 renal
  TGI: > 100 µM
RPMI-8226 leukemia
  TGI: > 100 µM
UO-31 renal
  TGI: > 100 µM
786-0 renal
  TGI: > 100 µM
IGROV1 ovarian
  TGI: > 100 µM
SNB-75 CNS
  TGI: > 100 µM
HOP-92 NSCLC
  TGI: > 100 µM
SK-MEL-5 melanoma
  TGI: > 100 µM
HT29 colon
  TGI: > 100 µM
HCC-2998 colon
  TGI: 57.9 µM
NCI-H522 lung
  TGI: 79.4 µM
OVCAR-4 ovarian
  TGI: > 100 µM
A549 NSCLC
  TGI: > 100 µM

## O=C1C(Cl)=C(N2CCN(CCOCCO)CC2)C(=O)c2ccccc21
MCF7 breast
  TGI: 14.4 µM
LOX IMVI melanoma
  TGI: 17.7 µM
KM12 colon
  TGI: 31.6 µM
T-47D breast
  TGI: 3.34 µM
OVCAR-8 ovarian
  TGI: 28.2 µM
TK-10 renal
  TGI: 34.7 µM
RPMI-8226 leukemia
  TGI: > 26.9 µM
UO-31 renal
  TGI: 21.2 µM
786-0 renal
  TGI: 24 µM
IGROV1 ovarian
  TGI: 28.6 µM
SNB-75 CNS
  TGI: 27.7 µM
HOP-92 NSCLC
  TGI: 2.89 µM
SK-MEL-5 melanoma
  TGI: 28.2 µM
HT29 colon
  TGI: 30 µM
HCC-2998 colon
  TGI: 32.1 µM
NCI-H522 lung
  TGI: 3.57 µM
OVCAR-4 ovarian
  TGI: 6.26 µM
A549 NSCLC
  TGI: 34.2 µM

## C[C@@H](Oc1ccc(Oc2cnc3ccc(Cl)cc3n2)cc1)C(=O)O
MCF7 breast
  GI50: 18.3 µM
  TGI: > 100 µM
LOX IMVI melanoma
  TGI: > 100 µM
KM12 colon
  TGI: > 100 µM
T-47D breast
  TGI: > 100 µM
OVCAR-8 ovarian
  TGI: > 100 µM
TK-10 renal
  TGI: > 100 µM
RPMI-8226 leukemia
  TGI: > 100 µM
UO-31 renal
  TGI: > 100 µM
786-0 renal
  TGI: > 100 µM
IGROV1 ovarian
  TGI: > 100 µM
SNB-75 CNS
  TGI: > 100 µM
HOP-92 NSCLC
  TGI: > 100 µM
SK-MEL-5 melanoma
  GI50: > 82.1 µM
  TGI: > 100 µM
HT29 colon
  TGI: > 100 µM
HCC-2998 colon
  TGI: > 100 µM
NCI-H522 lung
  TGI: > 100 µM
OVCAR-4 ovarian
  TGI: > 100 µM
A549 NSCLC
  TGI: > 100 µM

## CC(O)CC(=O)CO[C@H]1[C@H](O)[C@@H](O)[C@@H](O)[C@@H]2NC(=O)c3c(cc4c(c3O)OCO4)[C@H]21 (stereo partly drawn)
MCF7 breast
  TGI: 0.461 µM
LOX IMVI melanoma
  TGI: 0.117 µM
KM12 colon
  TGI: 0.202 µM
T-47D breast
  TGI: 0.109 µM
OVCAR-8 ovarian
  TGI: 1.53 µM
TK-10 renal
  TGI: 0.238 µM
RPMI-8226 leukemia
  TGI: 0.147 µM
UO-31 renal
  TGI: 0.588 µM
786-0 renal
  TGI: 0.485 µM
IGROV1 ovarian
  TGI: 0.256 µM
SNB-75 CNS
  TGI: 0.404 µM
HOP-92 NSCLC
  TGI: 0.64 µM
SK-MEL-5 melanoma
  TGI: 0.0623 µM
HT29 colon
  TGI: 0.179 µM
HCC-2998 colon
  TGI: 0.0609 µM
NCI-H522 lung
  TGI: 0.0962 µM
OVCAR-4 ovarian
  TGI: 0.287 µM
A549 NSCLC
  TGI: 0.352 µM

## COc1ccc(C(OC(=O)[C@H](O[Si](C)(C)C(C)(C)C)[C@@H](NC(=O)c2ccccc2)c2ccccc2)c2ccc(OC)cc2)cc1
MCF7 breast
  TGI: > 100 µM
LOX IMVI melanoma
  TGI: > 100 µM
KM12 colon
  TGI: > 100 µM
T-47D breast
  TGI: > 100 µM
OVCAR-8 ovarian
  TGI: > 100 µM
TK-10 renal
  TGI: > 100 µM
RPMI-8226 leukemia
  TGI: 25.1 µM
UO-31 renal
  TGI: > 100 µM
786-0 renal
  TGI: > 100 µM
IGROV1 ovarian
  TGI: > 100 µM
SNB-75 CNS
  TGI: > 100 µM
HOP-92 NSCLC
  TGI: > 100 µM
SK-MEL-5 melanoma
  TGI: > 100 µM
HT29 colon
  TGI: > 100 µM
HCC-2998 colon
  TGI: > 100 µM
NCI-H522 lung
  TGI: > 100 µM
OVCAR-4 ovarian
  TGI: > 100 µM
A549 NSCLC
  TGI: > 100 µM
